Results: patent US4168318A, “1-(2,4,6-Trihydroxyphenyl)-propanedione-(1,2)-compounds and therapeutic compositions” (priority 1974, dated 1979)
Where two headings read alike, the source gives them in different places. Marks after values point to notes of the source that are not given here.

Experiments:
mice = experiment: Acute toxicity / acute tolerance after i.v. injection in mice (Experiment A); type: in vivo, mice (male and female SPF-mice, stock NMRI); conditions: for death rate % / death rate/No.: 14 days observation; for death rate/day, 1st: 1st day; for DL50, converted to the free compound: given as N-methyl glucamine salt, expressed as Compound; for death rate/day, 3rd: 3rd day; for acute symptoms of non-tolerance: mice; for death rate/day, 2nd: 2nd day
Method: (§1) The acute toxicity of the compounds of the invention was tested on mice, and since the substances are substantially nontoxic after oral administration, the acute tolerance of the two Compounds B and C in their methyl glucamine salts form was determined after i.v. injection. This form of preparation was also chosen for the pharmacological measurement of the antiphalloidine effect.
(§2) Experimental animals were male and female SPF-mice, stock NMRI, of the firm of Voss, Tuttlingen, Germany, having a weight of about 25-30 g. each. All animals were housed under identical conditions and were given "Sniff" standard food and drinking water ad libitum. The mice were administered the dosages once in 20 ml 0.9% NaCl+4% PVP/kg i.v. at an injection rate of approximately 1 ml/min. The observation time was 14 days.
(§3) 1. Compound B as N-methyl glucamine salt.
(§4) 2. Compound C as N-methyl glucamine salt.
(§5) 3. Polyvinyl pyrrolidone (PVP) of Fluka, mol. wt.~10,000 stock solution: 4% PVP dissolved in 0.9% NaCl.

[1] = test system: liver damage induced by phalloidine; experiment: Anti-phalloidine effect: death rate and survival time after phalloidine poisoning (Experiment B); type: in vivo, mice (male and female, homebred strain, stock Garvens); conditions: 140.5 mg/kg i.v. as N-methyl glucamine salt 1 hour before phalloidine 3 mg/kg i.p.
Method: The liver-protective effect of the compounds B and C according to the invention in the form of their water-soluble N-methyl glucamine salts was tested on mice by antagonizing liver damage induced by phalloidine with treatment using the compounds of the invention.
140.5 mg of Compound B/25 ml 0.9% NaCl+4% PVP/kg i.v.
40.5 mg MG/25 ml 0.9% NaCl+4% PVP/[…] i.v.
Phalloidine, predissolved in 3 ml methanol to 20 ml 0.9%
Experimental animals were male and female mice of a homebred strain, stock Garvens, having a weight of about 20-25 g. All animals were housed under identical conditions and were given "Ssniff" standard food and drinking water ad libitum.
Compound B as its N-methyl glucamine salt was injected in a dosage of 140.5 mg/kg i.v. 1 hour prior to administration of phalloidine at 3 mg/kg i.p. (to induce damage to the liver). The control animals received 40.5 mg/kg N-methyl glucamine salt i.v. The death rate and survival time after the phalloidine poisoning were registered. The observation time was 7 days.

[2] = Acute toxicity / acute tolerance after i.v. injection in mice (Experiment A); type: in vivo, mice (male and female SPF-mice, stock NMRI); conditions: mouse, in vivo, iv; for mortality at 336 h: N-methyl glucamine salt, 14 days observation, read-out: death rate %; for LD50 at 336 h: i.v., given as N-methyl glucamine salt, expressed as Compound, read-out: DL50, converted to the free compound
Method: as §1, §2, §3, §4, §5

[3] = test system: phalloidine-induced damage to the liver; experiment: Anti-phalloidine effect: serum enzymes GOT and GPT (Experiment C); type: in vivo, mice (female SPF-mice, stock NMRI); conditions: 140.5 mg/kg i.v. as N-methyl glucamine salt 1 hour before phalloidine 1.5 mg/kg i.p.
Method: As an additional pharmacological measurement, the antiphalloidine effect of Compound C as its N-methyl glucamine salt i.v. was subsequently determined.
1.5 mg phalloidine, predissolved in 3 ml methanol ad 20 ml
Experimental animals were female SPF-mice, stock NMRI, of the firm of Voss, Tuttlingen, having a weight of about 25 g. All animals were housed under identical conditions and were given "Ssniff" standard food and drinking water ad libitum. Compound C as its N-methyl glucamine salt was injected in a dosage of 140.5 mg/kg i.v. 1 hour before the phalloidine poisoning (1.5 mg/kg i.p.). The control animals received 40.5 mg/kg N-methyl glucamine salt i.v. after a period of 24 hours subsequent to the damage to the liver, blood was taken from the mice from the retroorbital venae plexus for the determination of the serum enzymes GOT and GPT.

[4] = female mice, 570 mg/kg i.v., N-methyl glucamine salt
[5] = female mice, 680 mg/kg i.v., N-methyl glucamine salt
[6] = female mice, 800 mg/kg i.v., N-methyl glucamine salt
[7] = female mice, 960 mg/kg i.v., N-methyl glucamine salt
[8] = male mice, 425 mg/kg i.v., N-methyl glucamine salt
[9] = male mice, 600 mg/kg i.v., N-methyl glucamine salt
[10] = male mice, 714.1 mg/kg i.v., N-methyl glucamine salt
[11] = male mice, 850 mg/kg i.v., N-methyl glucamine salt
[12] = male mice, 1200 mg/kg i.v., N-methyl glucamine salt
[13] = male mice, 1700 mg/kg i.v., N-methyl glucamine salt
[14] = female mice, 424.3 mg/kg i.v., N-methyl glucamine salt
[15] = female mice, 504.6 mg/kg i.v., N-methyl glucamine salt
[16] = female mice, 600 mg/kg i.v., N-methyl glucamine salt
[17] = male mice, 424.3 mg/kg i.v., N-methyl glucamine salt
[18] = male mice, 504.6 mg/kg i.v., N-methyl glucamine salt

With COc1cc(C2Oc3cc(CC(=O)C(=O)c4c(O)cc(O)cc4O)ccc3OC2CO)ccc1O (stereo not drawn) [Compound B] the death rate % (mice; [4]) was 0%, the “death rate/No.” value (mice; [4]) was 0/10 and the “death rate/day, 1st” value (mice; [5]) was 1. The death rate % (mice; [5]) was 10%, the “death rate/No.” value (mice; [5]) was 1/10 and the survival time span (mice; female mice, 680 mg/kg i.v., N-methyl glucamine salt, ' = minutes, ^h = hours) was ~23^h minutes-hours. For the same compound, the “death rate/day, 1st” value (mice; [6]) was 3, the death rate % (mice; [6]) was 30% and the “death rate/No.” value (mice; [6]) was 3/10. The “death rate/day, 1st” value (mice; [7]) was 7, the death rate % (mice; [7]) was 70% and the “death rate/No.” value (mice; [7]) was 7/10. The “DL50, converted to the free compound” value (mice; female mice, i.v., 20160 min) was 604.98 mg/kg, the death rate % (mice; [8]) was 0% and the “death rate/No.” value (mice; [8]) was 0/5. The death rate % (mice; [9]) was 0%, the “death rate/No.” value (mice; [9]) was 0/10 and the “death rate/day, 1st” value (mice; [10]) was 1. For the same compound, the “death rate/day, 3rd” value (mice; [10]) was 2, the death rate % (mice; [10]) was 30% and the “death rate/No.” value (mice; [10]) was 3/10. The “death rate/day, 1st” value (mice; [11]) was 8, the death rate % (mice; [11]) was 80% and the “death rate/No.” value (mice; [11]) was 8/10. For the same compound, the “death rate/day, 1st” value (mice; [12]) was 5, the death rate % (mice; [12]) was 100% and the “death rate/No.” value (mice; [12]) was 5/5. For the same compound, the “death rate/day, 1st” value (mice; [13]) was 3, the death rate % (mice; [13]) was 100% and the “death rate/No.” value (mice; [13]) was 3/3. The DL50 (mice; male mice, i.v., dose as N-methyl glucamine salt, 20160 min) was 820 ± 34 mg/kg, the “DL50, converted to the free compound” value (mice; male mice, i.v., 20160 min) was 583.63 mg/kg and the “acute symptoms of non-tolerance” value (mice; i.v., N-methyl glucamine salt) was “accelerated respiration, laying on their side, and clonic tonic cramps before death actually occurred”. For the same compound, the “phalloidine poisoning (DL80) measured by death rate and survival time” value [1] was “prevented” and the death rate ([1]; male and female mice, 7 days, control 80%) was 0%.

For COc1cc(C2Oc3c(O)cc(CC(=O)C(=O)c4c(O)cc(O)cc4O)cc3C2CO)ccc1O (stereo not drawn) [Compound C], the “death rate/No.” value (mice; female mice, 300 mg/kg i.v., N-methyl glucamine salt) was 0/10, the “death rate/day, 2nd” value (mice; [14]) was 1 and the “death rate/day, 3rd” value (mice; [14]) was 5. The “death rate/day, 4th” value (mice; female mice, 424.3 mg/kg i.v., N-methyl glucamine salt, 4th day) was 2, the “death rate/No.” value (mice; [14]) was 8/10 and the “death rate/day, 1st” value (mice; [15]) was 5. The “death rate/No.” value (mice; [15]) was 5/5, the “death rate/day, 1st” value (mice; [16]) was 5 and the “death rate/No.” value (mice; [16]) was 5/5. For the same compound, the “death rate/No.” value (mice; male mice, 300 mg/kg i.v., N-methyl glucamine salt) was 0/10, the “death rate/day, 2nd” value (mice; [17]) was 3 and the “death rate/day, 3rd” value (mice; [17]) was 1. The “death rate/No.” value (mice; [17]) was 4/10, the “death rate/day, 1st” value (mice; [18]) was 5 and the “death rate/No.” value (mice; [18]) was 5/5. For the same compound, the “death rate/day, 1st” value (mice; [9]) was 5, the “death rate/No.” value (mice; [9]) was 5/5 and the “acute symptoms of non-tolerance” value (mice; i.v., N-methyl glucamine salt) was “accelerated respiration, laying on their side, and clonic tonic cramps before death actually occurred”. For the same compound, the mortality at 336 h ([2]; 300 mg/kg, female mice, 300 mg/kg i.v.) was 0%, the mortality at 336 h ([2]; 300 mg/kg, male mice, 300 mg/kg i.v.) was 0% and the mortality at 336 h ([2]; 424.3 mg/kg, female mice, 424.3 mg/kg i.v.) was 80%. The mortality at 336 h ([2]; 424.3 mg/kg, male mice, 424.3 mg/kg i.v.) was 40%, the mortality at 336 h ([2]; 504.6 mg/kg, female mice, 504.6 mg/kg i.v.) was 100% and the mortality at 336 h ([2]; 504.6 mg/kg, male mice, 504.6 mg/kg i.v.) was 100%. It also gave a mortality at 336 h ([2]; 600 mg/kg, female mice, 600 mg/kg i.v.) of 100%, a mortality at 336 h ([2]; 600 mg/kg, male mice, 600 mg/kg i.v.) of 100% and an LD50 at 336 h ([2]; female mice) of 274 mg/kg. For the same compound, the LD50 at 336 h ([2]; male mice) was 295 mg/kg, the “damage to the liver, measured by the increase of serum enzymes GOT and GPT” value [3] was “entirely prevented” and the “GPT in the serum” value ([3]; female mice, 24 hours after, control 667.4±324.6) was 13.4±0.9 mU/ml. For the same compound, the “GOT in the serum” value ([3]; female mice, 24 hours after, control 1489.2±904.7) was 38.7±2.9 mU/ml.
